{"source": "patent US8093268B2", "about": "“Pharmaceutical compositions comprising 2-methoxy-5-(5-trifluoromethyl-tetrazol-1-yl-benzyl)-(2S-phenylpiperidin-3S-yl-)” (Glaxo Group Limited, priority 2007, dated 2012)", "key": {"Male CD rats": {"tested_on": "Male CD rats", "test": "Rat MEST model (maximal electroshock seizure threshold)", "type": "in vivo", "method": "This work was conducted in compliance with the Home Office Guidance on the operation of the Animals (Scientific Procedures) Act 1986 and GlaxoSmithKline ethical standards. Male CD rats (100-145 g) were supplied by Charles River, UK. Animals were group housed (6 animal per cage) with free access to food (Standard rodent chow; Harlan, UK) and water under a 12 h light/dark cycle (lights on at 0700 h). A period of at least one week between arrival at GSK and the study was allowed in all cases.\nAnimals were administered a test compound at the appropriate dose, route and pre-treatment time and returned to their home cage. Testing occurred in a separate room from that used for housing. Testing involved determining the threshold for tonic hindlimb extensor seizures using a Hugo Sachs Electronik stimulator which delivers a constant current of 0.3 second duration, 50 Hz, sinewave form, fully adjustable between 1 and 300 mA. Stimuli were delivered via corneal electrodes (Stean T O, Atkins A R, Heidbreder C A, Quinn L P, Trail B K, Upton N. (2005) Br J. Pharmacol. 144(5):628-35). Seizure threshold was determined using the ‘up and down’ method of Kimball et al. (1957)(Kimball A W, Burnett W T Jr, Doherty D G. (1957) Radiat Res. 7(1):1-12). The first animal tested in each group was stimulated with a current that might be expected to be close to the threshold for induction of a seizure. If a tonic seizure was not induced, then then next animal in the group received a stimulus 5 mA higher. If a tonic seizure was induced, then the next animal received a stimulus 5 mA lower. This is repeated for all animals within the control (vehicle) group. In the case of groups treated with a sodium channel blocker steps of 10 to 30 mA were used.\n(§1) All doses were calculated as base. ENa9 and ENa13 were dosed via the subcutaneous (s.c.) route at 1 ml/kg in a 2% v/v DMSO/saline vehicle 30 minutes prior to test. ENa7 and ENa14 were dosed orally (p.o.) in a 1% w/v methylcellulose/water vehicle at 2 ml/kg, 60 minutes before test. Compound ENK6 was dosed with via the intraperitoneal (i.p.) route 60 minutes before the test or via the s.c. route 15 minutes before test. In both cases ENK6 was dissolved in saline.\nInduction of seizure is measured as an all-or-nothing effect scored as either present (+) or absent (0) for each animal. The data for each treatment group were recorded as the number of +'s and 0's at each current level employed and this information was then used to calculate the CC50 value (current required for 50% of animals to show seizure behaviour)+standard error of the mean according to the method of Kimball et al. (1957). Drug effects were calculated as the % change in CC50. Significant differences between drug-treated animals and appropriate vehicle treated groups were assessed according to the methods of Litchfield and Wilcoxon (1949). The statistical significance of differences between sodium channel blocker alone or in combination with ENK6 was assessed using a Student's t test."}, "rats": {"tested_on": "rats", "test": "FCA (Freunds Complete Adjuvant) model of inflammatory hypersensitivity to pain, weight bearing", "type": "in vivo, rat", "method": "• Naïve weight bearing readings were taken. The hypersensitivity to pain was measured using the Rat incapacitance tester (Linton instruments). This instrument is serviced once a year and should be regularly calibrated • All rats then received an intraplantar injection of 100 ul of FCA (Freund's complete adjuvant) into the left hind paw. The FCA was sonicated for 15 minutes prior to use. • Approximately 23 hrs after administration of the FCA, pre-dose weight bearing readings were taken. All animals were then ranked and randomised for dosing according to their FCA window (predose difference in grams−naïve difference in grams). […] Celebrex 10 mg/kg p.o. (positive control) as appropriate according to ranking and randomisation. • Animals were assessed in the weight bearing apparatus 1 hour post dose. • The study was blind and randomised by FCA window using the Latin square method. • % reversals were calculated by using the naïve, pre-dose and post dose values as follows: % Reversal=[(Pre-dose−Post-dose)/(Pre-dose−Naïve)]×100 • Graphs and ED50 were calculated where appropriate using Prism4. • Statistical analysis was carried out using ANOVA followed by calculating the least square means using the statistical package Statistica 6.1 • From the dose response curves the ED20 was determined for the combination study Results • Naïve weight bearing readings were taken. The hypersensitivity to pain was measured using the Rat incapacitance tester (Linton instruments). This instrument is serviced once a year and should be regularly calibrated • All rats then received an intraplantar injection of 100 ul of FCA (Freund's complete adjuvant) into the left hind paw. The FCA was sonicated for 15 minutes prior to use. • Approximately 23 hrs after administration of the FCA, pre-dose weight bearing readings were taken. All animals were then ranked and randomised for dosing according to their FCA window (predose difference in grams−naïve difference in grams). […] See table 5 for details of the groups • Animals were assessed in the weight bearing apparatus 1 hour post dose. • The study was blind and randomised by FCA window using the Latin square method. • % reversals were calculated by using the naïve, pre-dose and post dose values as follows: % Reversal=[(Pre-dose−Post-dose)/(Pre-dose−Naïve)]×100 • Statistical analysis was carried out using ANOVA followed by calculating the least square means using the statistical package Statistica 6.1 • ED50 and ED20 values and graphs were calculated using prism5 • Naïve weight bearing readings were taken. The hypersensitivity to pain was measured using the Rat incapacitance tester (Linton instruments). This instrument is serviced once a year and should be regularly calibrated • All rats then received an intraplantar injection of 100 ul of FCA (Freund's complete adjuvant) into the left hind paw. The FCA was sonicated for 15 minutes prior to use. • Approximately 23 hrs after administration of the FCA, pre-dose weight bearing readings were taken. All animals were then ranked and randomised for dosing according to their FCA window (predose difference in grams−naïve difference in grams). […] Graphs and ED50 were calculated where appropriate using Prism5 • Statistical analysis was carried out using ANOVA followed by calculating the least square means using the statistical package Statistica 6.1 Results"}, "[1]": {"test": "Blood and brain concentrations in satellite animals of the MEST studies", "type": "in vivo, rat", "conditions": "1 and 3 mg/kg s.c. with ENK6 30 mg/kg i.p.", "method": "Satellite animals (n=3/group) received the same drugs or combinations of drugs as the test groups, and were culled at the appropriate time after dosing. Blood and brain samples were taken for analysis of the drug concentrations in these compartments.\nas §1"}, "[2]": {"conditions": "ED20 dose alone (ENa7 0.1 mg/kg p.o.; ENK6 0.08 mg/kg s.c.)"}, "[3]": {"conditions": "FIG. 3, group marked by vertical arrow, ENK6 10 mg/kg sc 15 min ptt, Ena7 1 & 3 mg/kg po 60 min ptt"}, "[4]": {"conditions": "3 mg/kg s.c., 30 min before test, alone"}}}
{"smiles": "COc1ccc(-n2nnnc2C(F)(F)F)cc1CN[C@H]1CCCN[C@H]1c1ccccc1.Cl.Cl", "note": "[ENK6, [2-Methoxy-5-(5-trifluoromethyl-tetrazol-1-yl)-benzyl]-([2S,3S]-2-phenyl-piperidin-3-yl)-amine dihydrochloride]", "values": [{"measurement": "effect on seizure threshold", "setting": "Male CD rats; 10 mg/kg s.c., 15 min before test, alone (first experiment)", "result": "no effect on seizure threshold"}, {"measurement": "effect on seizure threshold", "setting": "Male CD rats; 30 mg/kg i.p., 60 min before test, alone", "result": "no effect on seizure threshold"}, {"measurement": "effect on seizure threshold", "setting": "Male CD rats; 30 mg/kg s.c., 15 min before test, alone", "result": "no effect on seizure threshold"}, {"measurement": "effect on FCA induced hypersensitivity", "setting": "rats; 0.1-3.0 mg/kg, alone, 1 hour post dose, dihydrochloride", "result": "dose related reversal of the FCA induced hypersensitivity"}, {"measurement": "effect on FCA induced hypersensitivity", "setting": "rats; [2]", "result": "no significant effect on the FCA induced hypersensitivity"}, {"measurement": "ED20, reversal of FCA induced hypersensitivity", "setting": "rats; s.c., alone (summary of results)", "result": "approx 0.08 mg/kg"}]}
{"smiles": "Nc1nnc(-c2cccc(Cl)c2Cl)c(N)n1", "note": "[ENa7, 3,5-diamino-6-(2,3-dichlorophenyl)-1,2,4-triazine, reference compound]", "values": [{"measurement": "effect on seizure threshold", "setting": "Male CD rats; 1 mg/kg p.o., 60 min before test, alone", "result": "little or no increase in seizure threshold"}, {"measurement": "CC50 value", "setting": "Male CD rats; [3]", "result": "greater than 180 mA"}, {"measurement": "increase in CC50", "setting": "Male CD rats; [3]", "result": "> 780", "unit": "%"}, {"measurement": "effect on FCA induced hypersensitivity", "setting": "rats; 0.1-3.0 mg/kg, alone, 1 hour post dose", "result": "dose related reversal of the FCA induced hypersensitivity"}, {"measurement": "effect on FCA induced hypersensitivity", "setting": "rats; [2]", "result": "no significant effect on the FCA induced hypersensitivity"}]}
{"smiles": "Cl.NC(=O)[C@@H]1CC[C@H](c2ccc(OCc3ccccc3F)cc2)N1", "note": "[ENa9, (5R)-5-(4-{[(2-fluorophenyl)methyl]oxy}phenyl)-L-prolinamide hydrochloride]", "values": [{"measurement": "effect on seizure threshold", "setting": "Male CD rats; [4]", "result": "small, but significant increase in seizure threshold"}, {"measurement": "blood or brain concentration in the presence of ENK6 versus alone", "setting": "[1]", "result": "No increase"}]}
{"smiles": "CN1CC[C@]2(CC[C@H](c3ccc(OCc4ccccc4F)cc3)N2)C1=O.Cl", "note": "[ENa13, (2R,5R)-2-(4-{[(2-Fluorophenyl)methyl]oxy}phenyl)-7-methyl-1,7-diazaspiro[4,4]nonan-6-one hydrochloride]", "values": [{"measurement": "effect on seizure threshold", "setting": "Male CD rats; [4]", "result": "robust and significant increase in seizure threshold"}, {"measurement": "blood or brain concentration in the presence of ENK6 versus alone", "setting": "[1]", "result": "No increase"}]}
{"smiles": "Nc1nc(N)c(-c2cccc(Cl)c2Cl)c(CF)n1", "note": "[ENa15, R(−)-2,4-diamino-5-(2,3-dichlorophenyl)-6-fluoromethyl pyrimidine methanesulphonate]", "values": [{"measurement": "effect on seizure threshold", "setting": "Male CD rats; 0.3 mg/kg p.o., 60 min before test, alone", "result": "no increase in seizure threshold"}, {"measurement": "increase in CC50(mA)", "setting": "Male CD rats; 1 mg/kg p.o. in the presence of ENK6 30 mg/kg s.c.", "result": 51, "unit": "%"}]}
